Data as given in patent US20230295200A1 (REGENTS OF THE UNIVERSITY OF MICHIGAN, priority 2022, published 2023).
pKi: −log10 of the molar value.

target: T1, STAT6 protein (Homo sapiens, UniProt P42226); assay: Fluorescence polarization (FP) binding assay, STAT6; details: FP competition, 5 nM fluorescein-labeled tracer, 200 nM protein, PBS pH7.4; read-out: Binding STAT6
T1 sequence (P42226 1-847): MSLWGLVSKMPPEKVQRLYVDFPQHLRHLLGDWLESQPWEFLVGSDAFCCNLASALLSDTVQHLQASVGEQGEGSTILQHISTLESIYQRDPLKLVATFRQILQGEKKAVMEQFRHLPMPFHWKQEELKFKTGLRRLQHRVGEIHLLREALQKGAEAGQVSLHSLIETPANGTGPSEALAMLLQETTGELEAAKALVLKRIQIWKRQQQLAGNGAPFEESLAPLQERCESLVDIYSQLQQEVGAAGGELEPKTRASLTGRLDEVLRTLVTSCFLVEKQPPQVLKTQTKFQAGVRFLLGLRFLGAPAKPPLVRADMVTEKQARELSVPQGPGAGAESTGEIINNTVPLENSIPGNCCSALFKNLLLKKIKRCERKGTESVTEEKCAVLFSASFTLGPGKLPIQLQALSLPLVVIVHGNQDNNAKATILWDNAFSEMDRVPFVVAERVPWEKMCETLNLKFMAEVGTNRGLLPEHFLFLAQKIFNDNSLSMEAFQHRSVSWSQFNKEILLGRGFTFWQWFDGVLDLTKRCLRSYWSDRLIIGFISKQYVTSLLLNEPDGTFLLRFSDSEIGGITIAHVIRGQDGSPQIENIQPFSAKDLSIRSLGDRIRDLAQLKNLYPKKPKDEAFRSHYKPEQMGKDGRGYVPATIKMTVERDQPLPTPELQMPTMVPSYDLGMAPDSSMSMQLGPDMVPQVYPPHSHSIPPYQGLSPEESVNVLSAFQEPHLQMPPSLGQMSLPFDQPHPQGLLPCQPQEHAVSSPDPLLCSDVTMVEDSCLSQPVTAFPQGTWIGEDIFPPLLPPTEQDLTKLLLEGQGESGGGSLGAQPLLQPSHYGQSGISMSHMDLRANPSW
Procedure: Evaluation of the activity of the inhibitors may be accomplished by fluorescence polarization (FP) experiments. A representative general protocol is the following:
Fluorescence polarization (FP) experiments are performed in black round-bottom plates using the CLARIOstar microplate reader. To each well, fluorescein-labeled tracer and STAT5 or STAT6 protein are added in assay buffer. […] The inhibition constants are determined as the concentration of the STAT5 or STAT6 at which 50% of the ligand is bound.
Fluorescence polarization (FP) experiments were performed in 96-well, black round-bottom plates (Microfluor 2, Fisher Scientific) using the CLARIOstar microplate reader (BMG Labtech). To each well, 5 nM of fluoresceinlabeled tracer and 200 nM of STAT5 and/or STAT6 protein were added to a final volume of 100 μl in the assay buffer (PBS pH7.4+0.01% BGG+0.01% Tween-20, 2 mM DTT). The plate was mixed on a shaker for 15 m and incubated at room temperature for 1 h to reach equilibrium. […] All experimental data were analyzed using Prism 8.0 software (GraphPad Software), and the inhibition constants were determined by nonlinear curve fitting as the concentration of the STAT5 and/or STAT6 at which 50% of the ligand is bound.

| pKi | SMILES |
| --- | --- |
| 6.00 to 7.00 | CC(C)(C)[C@H](NC(=O)c1cc2cc(C(F)(F)P(=O)(O)O)ccc2s1)C(=O)N1Cc2ccccc2C[C@H]1C(=O)N1CCOC(C2CCCCC2)C1 (stereo partly drawn) [Compound 222, ((2-(((2S)-1-((3S)-3-(2-cyclohexylmorpholine-4-carbonyl)-3,4-dihydroisoquinolin-2(1H)-yl)-3,3-dimethyl-1-oxobutan-2-yl)carbamoyl)benzo[b]thiophen-5-yl)difluoromethyl)phosphonic acid] |
| > 7.00 | CC(C)(C)[C@H](NC(=O)c1cc2cc(C(F)(F)P(=O)(O)O)ccc2s1)C(=O)N1Cc2ccccc2C[C@H]1C(=O)N1CCSC(c2ccccc2)C1 (stereo partly drawn) [Compound 223, ((2-(((2S)-3,3-dimethyl-1-oxo-1-((3S)-3-(2-phenylthiomorpholine-4-carbonyl)-3,4-dihydroisoquinolin-2(1H)-yl)butan-2-yl)carbamoyl)benzo[b]thiophen-5-yl)difluoromethyl)phosphonic acid] |
| > 7.00 | CC(C)(C)[C@H](NC(=O)c1cc2cc(C(F)(F)P(=O)(O)O)ccc2s1)C(=O)N1Cc2ccccc2C[C@H]1C(=O)N1CCS(=O)(=O)[C@H](c2ccccc2)C1 [Compound 224, ((2-(((S)-1-((S)-3-((R)-1,1-dioxido-2-phenylthiomorpholine-4-carbonyl)-3,4-dihydroisoquinolin-2(1H)-yl)-3,3-dimethyl-1-oxobutan-2-yl)carbamoyl)benzo[b]thiophen-5-yl)difluoromethyl)phosphonic acid] |
| 6.00 to 7.00 | CC(C)(C)[C@H](NC(=O)c1cc2cc(C(F)(F)P(=O)(O)O)ccc2s1)C(=O)N1Cc2ccccc2C[C@H]1C(=O)N1CCS(=O)(=O)[C@@H](c2ccccc2)C1 [Compound 225, ((2-(((S)-1-((S)-3-((S)-1,1-dioxido-2-phenylthiomorpholine-4-carbonyl)-3,4-dihydroisoquinolin-2(1H)-yl)-3,3-dimethyl-1-oxobutan-2-yl)carbamoyl)benzo[b]thiophen-5-yl)difluoromethyl)phosphonic acid] |
| 6.00 to 7.00 | CC1CN(C(=O)[C@@H]2Cc3ccccc3CN2C(=O)[C@@H](NC(=O)c2cc3cc(C(F)(F)P(=O)(O)O)ccc3s2)C(C)(C)C)CC(c2ccccc2)O1 (stereo partly drawn) [Compound 226, ((2-(((2S)-3,3-dimethyl-1-((3S)-3-(2-methyl-6-phenylmorpholine-4-carbonyl)-3,4-dihydroisoquinolin-2(1H)-yl)-1-oxobutan-2-yl)carbamoyl)benzo[b]thiophen-5-yl)difluoromethyl)phosphonic acid] |
| 6.00 to 7.00 | CC(C)(C)[C@H](NC(=O)c1cc2cc(C(F)(F)P(=O)(O)O)ccc2s1)C(=O)N1Cc2ccccc2C[C@H]1C(=O)N1CCOC(c2cccc3ccccc23)C1 (stereo partly drawn) [Compound 227, ((2-(((2S)-3,3-dimethyl-1-((3S)-3-(2-(naphthalen-1-yl)morpholine-4-carbonyl)-3,4-dihydroisoquinolin-2(1H)-yl)-1-oxobutan-2-yl)carbamoyl)benzo[b]thiophen-5-yl)difluoromethyl)phosphonic acid] |
| 6.00 to 7.00 | Cc1ccccc1C1CN(C(=O)[C@@H]2Cc3ccccc3CN2C(=O)[C@@H](NC(=O)c2cc3cc(C(F)(F)P(=O)(O)O)ccc3s2)C(C)(C)C)CCO1 (stereo partly drawn) [Compound 228, ((2-(((2S)-3,3-dimethyl-1-oxo-1-((3S)-3-(2-(o-tolyl)morpholine-4-carbonyl)-3,4-dihydroisoquinolin-2(1H)-yl)butan-2-yl)carbamoyl)benzo[b]thiophen-5-yl)difluoromethyl)phosphonic acid] |
| 5.00 to 6.00 | Cc1ccc(C2CN(C(=O)[C@@H]3Cc4ccccc4CN3C(=O)[C@@H](NC(=O)c3cc4cc(C(F)(F)P(=O)(O)O)ccc4s3)C(C)(C)C)CCO2)c(C)c1 (stereo partly drawn) [Compound 229, ((2-(((2S)-1-((3S)-3-(2-(2,4-dimethylphenyl)morpholine-4-carbonyl)-3,4-dihydroisoquinolin-2(1H)-yl)-3,3-dimethyl-1-oxobutan-2-yl)carbamoyl)benzo[b]thiophen-5-yl)difluoromethyl)phosphonic acid] |
| 6.00 to 7.00 | CC(C)(C)[C@H](NC(=O)c1cc2cc(C(F)(F)P(=O)(O)O)ccc2s1)C(=O)N1Cc2ccccc2C[C@H]1C(=O)N1CCOC(c2ccccc2F)C1 (stereo partly drawn) [Compound 230, (difluoro(2-(((2S)-1-((3S)-3-(2-(2-fluorophenyl)morpholine-4-carbonyl)-3,4-dihydroisoquinolin-2(1H)-yl)-3,3-dimethyl-1-oxobutan-2-yl)carbamoyl)benzo[b]thiophen-5-yl)methyl)phosphonic acid] |
| 6.00 to 7.00 | CC(C)(C)[C@H](NC(=O)c1cc2cc(C(F)(F)P(=O)(O)O)ccc2s1)C(=O)N1Cc2ccccc2C[C@H]1C(=O)N1CCOC(c2ccc(F)cc2)C1 (stereo partly drawn) [Compound 231, (difluoro(2-(((2S)-1-((3S)-3-(2-(4-fluorophenyl)morpholine-4-carbonyl)-3,4-dihydroisoquinolin-2(1H)-yl)-3,3-dimethyl-1-oxobutan-2-yl)carbamoyl)benzo[b]thiophen-5-yl)methyl)phosphonic acid] |
| 6.00 to 7.00 | CC(C)(C)[C@H](NC(=O)c1cc2cc(C(F)(F)P(=O)(O)O)ccc2s1)C(=O)N1Cc2ccccc2C[C@H]1C(=O)N1CCOC(c2ccccc2Cl)C1 (stereo partly drawn) [Compound 232, ((2-(((2S)-1-((3S)-3-(2-(2-chlorophenyl)morpholine-4-carbonyl)-3,4-dihydroisoquinolin-2(1H)-yl)-3,3-dimethyl-1-oxobutan-2-yl)carbamoyl)benzo[b]thiophen-5-yl)difluoromethyl)phosphonic acid] |
| > 7.00 | CC(C)(C)[C@H](NC(=O)c1cc2cc(C(F)(F)P(=O)(O)O)ccc2s1)C(=O)N1Cc2ccccc2C[C@H]1C(=O)N1CCOC(c2cccc(Cl)c2)C1 (stereo partly drawn) [Compound 233, ((2-(((2S)-1-((3S)-3-(2-(3-chlorophenyl)morpholine-4-carbonyl)-3,4-dihydroisoquinolin-2(1H)-yl)-3,3-dimethyl-1-oxobutan-2-yl)carbamoyl)benzo[b]thiophen-5-yl)difluoromethyl)phosphonic acid] |
| 6.00 to 7.00 | CC(C)(C)[C@H](NC(=O)c1cc2cc(C(F)(F)P(=O)(O)O)ccc2s1)C(=O)N1Cc2ccccc2C[C@H]1C(=O)N1CCOC(c2ccc(Cl)cc2)C1 (stereo partly drawn) [Compound 234, ((2-(((2S)-1-((3S)-3-(2-(4-chlorophenyl)morpholine-4-carbonyl)-3,4-dihydroisoquinolin-2(1H)-yl)-3,3-dimethyl-1-oxobutan-2-yl)carbamoyl)benzo[b]thiophen-5-yl)difluoromethyl)phosphonic acid] |
| 5.00 to 6.00 | CC1(c2ccc(Cl)cc2)CN(C(=O)[C@@H]2Cc3ccccc3CN2C(=O)[C@@H](NC(=O)c2cc3cc(C(F)(F)P(=O)(O)O)ccc3s2)C(C)(C)C)CCO1 (stereo partly drawn) [Compound 235, ((2-(((2S)-1-((3S)-3-(2-(4-chlorophenyl)-2-methylmorpholine-4-carbonyl)-3,4-dihydroisoquinolin-2(1H)-yl)-3,3-dimethyl-1-oxobutan-2-yl)carbamoyl)benzo[b]thiophen-5-yl)difluoromethyl)phosphonic acid] |
| 5.00 to 6.00 | CC1(c2ccc(F)cc2)CN(C(=O)[C@@H]2Cc3ccccc3CN2C(=O)[C@@H](NC(=O)c2cc3cc(C(F)(F)P(=O)(O)O)ccc3s2)C(C)(C)C)CCO1 (stereo partly drawn) [Compound 236, (difluoro(2-(((2S)-1-((3S)-3-(2-(4-fluorophenyl)-2-methylmorpholine-4-carbonyl)-3,4-dihydroisoquinolin-2(1H)-yl)-3,3-dimethyl-1-oxobutan-2-yl)carbamoyl)benzo[b]thiophen-5-yl)methyl)phosphonic acid] |
